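48-hour exposure; five concentrations; linearly interpolated endpoints. GI50 marks 50% less growth. TGI: concentration producing complete growth inhibition.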
How the values were obtained:
Test in all cases: NCI tumour cell line growth inhibition, 48 h
HOP-92 NSCLC = tested on: HOP-92 NSCLC
MDA-MB-435 = tested on: MDA-MB-435
SF-295 CNS = tested on: SF-295 CNS
SK-OV-3 ovarian = tested on: SK-OV-3 ovarian
SK-MEL-2 melanoma = tested on: SK-MEL-2 melanoma
SF-268 CNS = tested on: SF-268 CNS
NCI/ADR-RES ovarian = tested on: NCI/ADR-RES ovarian
HL-60(TB) leukemia = tested on: HL-60(TB) leukemia
BT-549 breast = tested on: BT-549 breast
UACC-62 melanoma = tested on: UACC-62 melanoma
DU-145 prostate = tested on: DU-145 prostate
SW-620 colon = tested on: SW-620 colon
UACC-257 melanoma = tested on: UACC-257 melanoma
CCRF-CEM leukemia = tested on: CCRF-CEM leukemia
SK-MEL-5 melanoma = tested on: SK-MEL-5 melanoma
NCI-H522 lung = tested on: NCI-H522 lung
KM12 colon = tested on: KM12 colon
HT29 colon = tested on: HT29 colon
MALME-3M melanoma = tested on: MALME-3M melanoma
RXF 393 renal = tested on: RXF 393 renal
HOP-62 NSCLC = tested on: HOP-62 NSCLC
T-47D breast = tested on: T-47D breast
SF-539 CNS = tested on: SF-539 CNS
PC-3 prostate = tested on: PC-3 prostate
OVCAR-3 ovarian = tested on: OVCAR-3 ovarian
HS 578T breast = tested on: HS 578T breast
NCI-H460 lung = tested on: NCI-H460 lung
CAKI-1 renal = tested on: CAKI-1 renal
A549 NSCLC = tested on: A549 NSCLC
ACHN renal = tested on: ACHN renal
OVCAR-4 ovarian = tested on: OVCAR-4 ovarian
UO-31 renal = tested on: UO-31 renal
M14 melanoma = tested on: M14 melanoma
IGROV1 ovarian = tested on: IGROV1 ovarian
EKVX NSCLC = tested on: EKVX NSCLC
OVCAR-5 ovarian = tested on: OVCAR-5 ovarian
SK-MEL-28 melanoma = tested on: SK-MEL-28 melanoma
COLO 205 colon = tested on: COLO 205 colon
MDA-MB-231 breast = tested on: MDA-MB-231 breast
HCT-15 colon = tested on: HCT-15 colon
SNB-75 CNS = tested on: SNB-75 CNS
RPMI-8226 leukemia = tested on: RPMI-8226 leukemia
NCI-H226 lung = tested on: NCI-H226 lung
K-562 leukemia = tested on: K-562 leukemia
NCI-H23 lung = tested on: NCI-H23 lung

N=C(N)c1ccc(-c2ccc(-c3ccc(F)cc3)s2)nc1
GI50 (HOP-92 NSCLC): 2.02 µM
TGI (HOP-92 NSCLC): 8.58 µM
GI50 (MDA-MB-435): 1.71 µM
TGI (MDA-MB-435): 3.17 µM
GI50 (SF-295 CNS): 1.85 µM
TGI (SF-295 CNS): 3.63 µM
GI50 (SK-OV-3 ovarian): 11 µM
TGI (SK-OV-3 ovarian): 28.9 µM
GI50 (SK-MEL-2 melanoma): 3.23 µM
TGI (SK-MEL-2 melanoma): 9.95 µM
GI50 (SF-268 CNS): 2.51 µM
TGI (SF-268 CNS): 6.98 µM
GI50 (NCI/ADR-RES ovarian): 2.72 µM
TGI (NCI/ADR-RES ovarian): 6.86 µM
GI50 (HL-60(TB) leukemia): 1.46 µM
TGI (HL-60(TB) leukemia): 3.38 µM
GI50 (BT-549 breast): 5.11 µM
TGI (BT-549 breast): 30.1 µM
GI50 (UACC-62 melanoma): 1.94 µM
TGI (UACC-62 melanoma): 4.24 µM
GI50 (DU-145 prostate): 1.83 µM
TGI (DU-145 prostate): 3.27 µM
GI50 (SW-620 colon): 1.84 µM
TGI (SW-620 colon): 3.65 µM
GI50 (UACC-257 melanoma): 2.2 µM
TGI (UACC-257 melanoma): 5.12 µM
GI50 (CCRF-CEM leukemia): 2.46 µM
TGI (CCRF-CEM leukemia): 6.06 µM
GI50 (SK-MEL-5 melanoma): 1.8 µM
TGI (SK-MEL-5 melanoma): 3.24 µM
GI50 (NCI-H522 lung): 2.05 µM
TGI (NCI-H522 lung): 4.63 µM
GI50 (KM12 colon): 1.92 µM
TGI (KM12 colon): 3.57 µM
GI50 (HT29 colon): 2.13 µM
TGI (HT29 colon): 5.52 µM
GI50 (MALME-3M melanoma): 1.71 µM
TGI (MALME-3M melanoma): 3.21 µM
GI50 (RXF 393 renal): 3.84 µM
TGI (RXF 393 renal): 16.9 µM
GI50 (HOP-62 NSCLC): 2.39 µM
TGI (HOP-62 NSCLC): 6.21 µM
GI50 (T-47D breast): 2.18 µM
TGI (T-47D breast): 6.68 µM
GI50 (SF-539 CNS): 1.75 µM
TGI (SF-539 CNS): 3.2 µM
GI50 (PC-3 prostate): 2.23 µM
TGI (PC-3 prostate): 6.04 µM
GI50 (OVCAR-3 ovarian): 1.77 µM
TGI (OVCAR-3 ovarian): 3.26 µM
GI50 (HS 578T breast): 2.72 µM
TGI (HS 578T breast): 8.89 µM
GI50 (NCI-H460 lung): 1.88 µM
TGI (NCI-H460 lung): 3.68 µM
GI50 (CAKI-1 renal): 1.67 µM
TGI (CAKI-1 renal): 3.06 µM
GI50 (A549 NSCLC): 2.11 µM
TGI (A549 NSCLC): 4.78 µM
GI50 (ACHN renal): 1.81 µM
TGI (ACHN renal): 3.2 µM
GI50 (OVCAR-4 ovarian): 1.87 µM
TGI (OVCAR-4 ovarian): 3.67 µM
GI50 (UO-31 renal): 1.53 µM
TGI (UO-31 renal): 2.87 µM
GI50 (M14 melanoma): 1.79 µM
TGI (M14 melanoma): 3.69 µM
GI50 (IGROV1 ovarian): 1.78 µM
TGI (IGROV1 ovarian): 3.61 µM
GI50 (EKVX NSCLC): 4.26 µM
TGI (EKVX NSCLC): 22.9 µM
GI50 (OVCAR-5 ovarian): 1.73 µM
TGI (OVCAR-5 ovarian): 3.3 µM
GI50 (SK-MEL-28 melanoma): 2.13 µM
TGI (SK-MEL-28 melanoma): 4.45 µM
GI50 (COLO 205 colon): 2.12 µM
TGI (COLO 205 colon): 4.76 µM
GI50 (MDA-MB-231 breast): 1.73 µM
TGI (MDA-MB-231 breast): 3.26 µM
GI50 (HCT-15 colon): 1.84 µM
TGI (HCT-15 colon): 3.56 µM
GI50 (SNB-75 CNS): 1.55 µM
TGI (SNB-75 CNS): 4.05 µM
GI50 (RPMI-8226 leukemia): 2.68 µM
TGI (RPMI-8226 leukemia): 6.83 µM
GI50 (NCI-H226 lung): 10.3 µM
TGI (NCI-H226 lung): 32.9 µM
GI50 (K-562 leukemia): 0.374 µM
TGI (K-562 leukemia): 1.75 µM
GI50 (NCI-H23 lung): 2.87 µM
TGI (NCI-H23 lung): 8.99 µM

Reference: PubChem BioAssay (NCI)
